Experimental data: ChEMBL document CHEMBL4421719, “Modulation of k2p channels” (2016)
The source made the active and inactive calls. The calls are words filed in the database; no cut-off is given here.

Tests used:
Assay type in all cases: cell-based
[1] = target: T1, Potassium channel subfamily K member 2 (Homo sapiens, UniProt O95069); assay: Activation of K2P2.1 (unknown origin) expressed in Xenopus oocytes assessed as effect on channel currents at -80 mV holding potential by two-electrode voltage clamp assay
T1 sequence (O95069 whole entry): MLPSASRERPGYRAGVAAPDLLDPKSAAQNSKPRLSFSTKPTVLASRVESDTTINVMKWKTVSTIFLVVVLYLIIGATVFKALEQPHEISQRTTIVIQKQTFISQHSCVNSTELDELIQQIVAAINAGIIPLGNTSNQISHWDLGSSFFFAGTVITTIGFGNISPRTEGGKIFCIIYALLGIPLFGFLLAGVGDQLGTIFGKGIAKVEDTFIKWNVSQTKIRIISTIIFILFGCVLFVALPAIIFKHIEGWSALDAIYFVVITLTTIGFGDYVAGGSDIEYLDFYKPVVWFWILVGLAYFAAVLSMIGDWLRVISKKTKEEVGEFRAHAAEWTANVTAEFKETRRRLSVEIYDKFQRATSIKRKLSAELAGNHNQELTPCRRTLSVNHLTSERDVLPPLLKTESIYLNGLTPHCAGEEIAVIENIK

[2] = target: T2, Potassium channel subfamily K member 10 (Homo sapiens) (UniProt P57789); assay: Activation of K2P10.1 (unknown origin) expressed in Xenopus oocytes assessed as effect on channel currents at -80 mV holding potential at 100 uM by two-electrode voltage clamp assay relative to control
T2 sequence (whole entry): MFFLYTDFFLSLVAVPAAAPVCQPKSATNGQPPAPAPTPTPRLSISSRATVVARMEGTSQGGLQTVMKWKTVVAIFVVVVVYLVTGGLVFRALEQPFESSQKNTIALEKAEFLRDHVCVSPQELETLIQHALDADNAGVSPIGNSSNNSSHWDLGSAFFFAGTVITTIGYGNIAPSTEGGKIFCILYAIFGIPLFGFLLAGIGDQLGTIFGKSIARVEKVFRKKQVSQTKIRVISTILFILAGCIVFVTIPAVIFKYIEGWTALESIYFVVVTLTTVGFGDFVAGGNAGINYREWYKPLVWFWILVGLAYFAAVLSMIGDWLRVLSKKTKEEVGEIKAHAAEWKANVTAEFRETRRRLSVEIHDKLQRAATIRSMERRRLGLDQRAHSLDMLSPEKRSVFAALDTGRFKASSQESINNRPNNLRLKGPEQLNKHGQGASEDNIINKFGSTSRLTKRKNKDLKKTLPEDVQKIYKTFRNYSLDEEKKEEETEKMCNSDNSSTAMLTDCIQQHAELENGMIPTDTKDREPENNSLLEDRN

[3] = target: Potassium channel subfamily K member 3 (Homo sapiens) (UniProt O14649); assay: Activation of K2P3.1 (unknown origin) expressed in Xenopus oocytes assessed as effect on channel currents at -80 mV holding potential at 100 uM by two-electrode voltage clamp assay relative to control
Sequence of Potassium channel subfamily K member 3 (Homo sapiens) (O14649 whole entry, looked up): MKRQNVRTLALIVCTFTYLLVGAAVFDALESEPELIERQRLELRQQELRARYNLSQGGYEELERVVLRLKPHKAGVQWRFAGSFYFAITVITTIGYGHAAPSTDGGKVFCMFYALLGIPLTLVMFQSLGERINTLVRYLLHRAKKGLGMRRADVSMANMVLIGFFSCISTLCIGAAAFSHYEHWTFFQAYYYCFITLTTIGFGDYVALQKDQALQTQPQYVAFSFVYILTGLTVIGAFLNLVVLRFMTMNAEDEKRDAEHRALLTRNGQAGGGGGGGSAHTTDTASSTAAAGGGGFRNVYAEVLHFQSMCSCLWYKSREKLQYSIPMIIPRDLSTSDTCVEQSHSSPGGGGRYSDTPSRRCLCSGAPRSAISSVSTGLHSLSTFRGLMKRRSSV

[4] = target: T3, Potassium channel subfamily K member 18 (Homo sapiens) (UniProt Q7Z418); assay: Activation of K2P18.1 (unknown origin) expressed in Xenopus oocytes assessed as effect on channel currents at -80 mV holding potential at 100 uM by two-electrode voltage clamp assay relative to control
T3 sequence (whole entry): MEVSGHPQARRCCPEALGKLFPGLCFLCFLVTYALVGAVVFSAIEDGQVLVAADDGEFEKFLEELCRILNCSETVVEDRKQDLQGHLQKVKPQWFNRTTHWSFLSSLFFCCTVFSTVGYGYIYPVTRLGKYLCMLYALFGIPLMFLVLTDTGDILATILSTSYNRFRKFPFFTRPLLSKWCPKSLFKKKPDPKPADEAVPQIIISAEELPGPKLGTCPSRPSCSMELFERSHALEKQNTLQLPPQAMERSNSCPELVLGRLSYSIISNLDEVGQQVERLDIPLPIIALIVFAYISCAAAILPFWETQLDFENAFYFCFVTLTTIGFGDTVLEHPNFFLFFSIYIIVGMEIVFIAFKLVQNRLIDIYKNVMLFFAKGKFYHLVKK

[5] = target: T4, Potassium channel subfamily K member 2 (Homo sapiens) (UniProt O95069); assay: Activation of K2P2.1 (unknown origin) expressed in Xenopus oocytes assessed as effect on channel currents at -80 mV holding by two-electrode voltage clamp assay relative to control
T4 sequence (whole entry): T1 sequence (O95069 whole entry)

[6] = target: T4, Potassium channel subfamily K member 2 (Homo sapiens); assay: Activation of K2P2.1 (unknown origin) expressed in HEK293T cells assessed as effect on channel currents by measuring half-maximal activation time at 5 to 20 uM by two-electrode voltage clamp assay relative to control
[7] = target: T4, Potassium channel subfamily K member 2 (Homo sapiens); assay: Activation of K2P2.1 (unknown origin) expressed in HEK293T cell membranes in inside-out patch configuration assessed as effect on channel currents at 20 uM by two-electrode voltage clamp assay relative to control
[8] = test system: Potassium channel subfamily K member 2 (Homo sapiens), O95069 [UNDEFINED MUTATION]; assay: Activation of K2P2.1 G137I mutant (unknown origin) expressed in Xenopus oocytes assessed as effect on channel currents at 50 uM at -80 mV holding potential by two-electrode voltage clamp assay
[9] = species: Homo sapiens; assay: Activation of K2P2.1 3G mutant (unknown origin) expressed in Xenopus oocytes assessed as effect on channel currents at -80 mV holding potential by two-electrode voltage clamp assay relative to control
[10] = target: Potassium voltage-gated channel subfamily KQT member 2 (Homo sapiens) (UniProt O43526); assay: Activation of Kv7.2 (unknown origin) expressed in Xenopus oocytes assessed as effect on channel currents at 100 uM at -80 mV holding potential by two-electrode voltage clamp assay relative to control
Sequence of Potassium voltage-gated channel subfamily KQT member 2 (Homo sapiens) (O43526 whole entry): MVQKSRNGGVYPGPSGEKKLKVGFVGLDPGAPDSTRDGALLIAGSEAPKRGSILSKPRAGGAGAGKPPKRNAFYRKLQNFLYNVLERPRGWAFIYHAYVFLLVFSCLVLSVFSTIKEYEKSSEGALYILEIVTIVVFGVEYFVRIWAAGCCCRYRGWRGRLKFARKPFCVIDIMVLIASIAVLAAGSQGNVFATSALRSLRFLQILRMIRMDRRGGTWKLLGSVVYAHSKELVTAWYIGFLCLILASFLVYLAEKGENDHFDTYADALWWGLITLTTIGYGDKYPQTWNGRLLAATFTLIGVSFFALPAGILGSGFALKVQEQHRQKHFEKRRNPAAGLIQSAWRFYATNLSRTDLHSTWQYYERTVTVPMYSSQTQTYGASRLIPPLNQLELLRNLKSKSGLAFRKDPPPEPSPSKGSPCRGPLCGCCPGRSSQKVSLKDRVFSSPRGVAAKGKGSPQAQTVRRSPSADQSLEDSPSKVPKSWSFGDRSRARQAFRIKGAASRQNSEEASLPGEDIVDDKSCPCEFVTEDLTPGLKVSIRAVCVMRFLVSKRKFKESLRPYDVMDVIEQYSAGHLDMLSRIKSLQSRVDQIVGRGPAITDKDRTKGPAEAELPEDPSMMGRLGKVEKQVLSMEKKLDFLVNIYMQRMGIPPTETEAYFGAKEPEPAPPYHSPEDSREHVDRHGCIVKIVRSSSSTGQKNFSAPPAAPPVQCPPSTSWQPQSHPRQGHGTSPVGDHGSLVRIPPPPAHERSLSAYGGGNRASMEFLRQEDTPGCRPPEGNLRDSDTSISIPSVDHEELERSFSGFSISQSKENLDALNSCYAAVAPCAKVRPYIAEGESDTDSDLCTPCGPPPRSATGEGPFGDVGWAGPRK

[11] = test system: Potassium channel subfamily K member 2 (Homo sapiens), O95069 [UNDEFINED MUTATION]; assay: Activation of K2P2.1 G137I mutant (unknown origin) expressed in Xenopus oocytes assessed as effect on channel currents at 150 uM at -80 mV holding potential by two-electrode voltage clamp assay relative to control
[12] = target: Potassium channel subfamily K member 2 (Homo sapiens, UniProt O95069, W275S); assay: Activation of K2P2.1 W275S mutant (unknown origin) expressed in Xenopus oocytes assessed as effect on channel currents at -80 mV holding potential by two-electrode voltage clamp assay
[13] = target: T5, Potassium channel subfamily K member 4 (Homo sapiens) (UniProt Q9NYG8); assay: Activation of K2P4.1 (unknown origin) expressed in Xenopus oocytes assessed as effect on channel currents at -80 mV holding potential by two-electrode voltage clamp assay relative to control
T5 sequence (whole entry): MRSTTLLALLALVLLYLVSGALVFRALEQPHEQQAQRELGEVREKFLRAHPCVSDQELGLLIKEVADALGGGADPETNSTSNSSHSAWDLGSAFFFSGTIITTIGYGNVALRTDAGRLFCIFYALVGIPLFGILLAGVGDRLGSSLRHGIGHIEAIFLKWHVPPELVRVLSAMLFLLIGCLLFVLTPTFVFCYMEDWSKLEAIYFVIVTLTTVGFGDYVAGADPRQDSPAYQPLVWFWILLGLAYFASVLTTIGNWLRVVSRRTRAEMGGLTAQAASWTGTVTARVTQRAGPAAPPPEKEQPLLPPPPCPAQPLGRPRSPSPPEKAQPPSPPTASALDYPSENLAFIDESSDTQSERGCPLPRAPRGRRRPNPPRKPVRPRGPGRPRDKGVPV

For CC1(C)c2cc(Cl)ccc2N(CCc2nnn[nH]2)c2ccc(Cl)cc21, the EC50 [1] was 36.3 to 38.5 µM, the Emax [2] was 11.4% and the Emax [3] was 1.1%. The Emax [4] was 0.9%, the Emax [5] was 11.1 to 11.4 and the TIME [6] was 0.00114 h. For the same molecule, the Activity [7] was “Active”, the Activity [8] was “inactive” and the Emax [9] was 12.9. For the same molecule, the Activity [10] was “inactive”, the Emax [11] was 0.9 and the EC50 [12] was 21.8 µM. It also gave an Emax [13] of 14.7.
